Results on four compounds are retold here after publication PMC3964607 (Nuclear medicine and biology, 2013).

For series [1] the following is noted: rats; cited from earlier work.
Series [2] in a line: Biodistribution in normal rats. The following applies: mean ± SD; for Percent injected dose in blood: i.v. tail vein. It counts as in vivo, rats (Sprague–Dawley).
Series [3] can be described thus: Biodistribution in rats with renal pedicle ligation. Format: in vivo, rats (Sprague–Dawley).
For series [4] the following is noted: Sprague-Dawley rats; cited from earlier work.
[5] abbreviates: rats with renal pedicle ligation, 60 min post-injection, mean ± SD, n=5.

For `N#Cc1cc(C(=O)NCC(=O)O)ccc1[18F]` [^18F-CNPFH, ^18F-m-cyano-p-fluorohippurate], the Route of elimination result in series [1] was “eliminated by both renal and hepatobiliary pathways”.
In the case of `O=C(O)CNC(=O)c1ccc([18F])cc1` [^18F-PFH, ^18F-p-fluorohippurate], the Route of elimination result in series [1] is “rapidly and exclusively cleared by the kidneys”.
On to `O=C(O)CNC(=O)c1ccccc1[131I]` [^131I-OIH, ^131I-o-iodohippurate], for which, in series [2] (10 min post-injection, n=7), the “Percent injected dose in blood” value came to 5.1 ± 0.5 % ID; the “Percent injected dose in bowel (intestines and stomach)” value (shortened to “Percent injected dose in bowel”) was 1.7 ± 0.5 % ID; the “Percent injected dose in kidney” value is 5.3 ± 1.2 % ID; the “Percent injected dose in liver” value was found to be 3.3 ± 0.2 % ID. For the same compound, the “Percent injected dose in urine” value in series [2] (10 min post-injection, n=7) was determined as 50.8 ± 5.2 % ID. Further, in series [2] (60 min post-injection, n=5), the “Percent injected dose in blood” value was determined as 0.8 ± 0.1 % ID; the “Percent injected dose in bowel” value is on record as 1.8 ± 0.3 % ID; the “Percent injected dose in kidney” value was found to be 0.7 ± 0.4 % ID; the “Percent injected dose in liver” value is recorded as 0.6 ± 0.2 % ID. Besides, the “Percent injected dose in urine” value in series [2] (60 min post-injection, n=5) was found to be 85.4 ± 3.1 % ID. The “Percent injected dose remaining in the spleen, heart and lung” value in series [3] (rats with ligated renal pedicles, 60 min) was “less than 1%”. In addition, in series [3] (setting [5]), the “Percent injected dose in blood” value stood at 15.1 ± 0.9 % ID; the “Percent injected dose in bowel” value worked out at 7.6 ± 1.1 % ID; the “Percent injected dose in kidney” value is 0.5 ± 0.2 % ID; the “Percent injected dose in liver” value is listed as 7.1 ± 0.6 % ID.
With ^125I-iothamalate, the “Clearance as percentage of the clearance of ^131I-OIH” value in series [4] was 40%.
